This note sets out measurements from patent US20040127492A1 (Pharmacia Corporation, priority 2002, published 2004).

Where a name gives a salt, the structure may show the parent alone.

MAPKAPK2 (MK-2), sequence (P49137 whole entry, species assumed): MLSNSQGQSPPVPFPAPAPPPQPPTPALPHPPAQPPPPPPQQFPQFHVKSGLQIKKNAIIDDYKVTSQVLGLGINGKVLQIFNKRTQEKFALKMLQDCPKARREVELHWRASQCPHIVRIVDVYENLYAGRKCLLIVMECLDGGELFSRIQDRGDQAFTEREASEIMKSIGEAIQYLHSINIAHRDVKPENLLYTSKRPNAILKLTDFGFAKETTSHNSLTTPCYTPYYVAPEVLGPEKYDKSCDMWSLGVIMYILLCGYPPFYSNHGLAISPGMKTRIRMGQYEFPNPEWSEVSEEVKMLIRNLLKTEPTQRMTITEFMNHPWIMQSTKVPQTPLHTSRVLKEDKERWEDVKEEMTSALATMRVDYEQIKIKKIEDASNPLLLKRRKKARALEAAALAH
MK-3, sequence (Q16644 whole entry, species assumed): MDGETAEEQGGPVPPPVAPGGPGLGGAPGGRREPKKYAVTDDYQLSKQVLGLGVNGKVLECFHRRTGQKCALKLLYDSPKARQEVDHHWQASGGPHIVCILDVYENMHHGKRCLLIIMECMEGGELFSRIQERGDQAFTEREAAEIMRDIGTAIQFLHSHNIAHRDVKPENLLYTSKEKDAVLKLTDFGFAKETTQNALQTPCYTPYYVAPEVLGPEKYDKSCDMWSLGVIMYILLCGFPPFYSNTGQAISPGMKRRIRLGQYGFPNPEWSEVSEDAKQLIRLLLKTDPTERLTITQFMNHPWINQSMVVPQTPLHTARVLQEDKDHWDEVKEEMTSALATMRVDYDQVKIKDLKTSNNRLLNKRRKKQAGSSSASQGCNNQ

In the first assay the target is MAPKAPK2 (MK-2) (Homo sapiens, UniProt P49137). The experiment in a line: Determination of MK-2 IC50 (HSP-peptide phosphorylation, anion exchange resin capture assay). The format is biochemical. To be noted: MK-2 Avg. IC50. As to the method:
Determination of MK-2 IC50:
Recombinant MAPKAPK2 was phosphorylated at a concentration of 42-78 μM by incubation with 0.23 μM of active p38α in 50 mM HEPES, 0.1 mM EDTA, 10 mM magnesium acetate, and 0.25 mM ATP, pH 7.5 for one hour at 30° C.
The phosphorylation of HSP-peptide ([…]) by MAPKAPK2 was measured using an anion exchange resin capture assay method. The reaction was carried out in 50 mM β-glycerolphosphate, 0.04% BSA, 10 mM magnesium acetate, 2% DMSO and 0.8 mM dithiotheritol, pH 7.5 in the presence of the HSP-peptide with 0.2 μCi [γ^33P]ATP and 0.03 mM ATP. The reaction was initiated by the addition of 15 nM MAPKAPK2 and was allowed to incubate at 30° C. for 30 min. The reaction was terminated and [γ^33P]ATP was removed from solution by the addition of 150 μl of AG 1×8 ion exchange resin in 900 mM sodium formate pH 3.0. A 50 μl aliquot of head volume was removed from the quenched reaction mixture and added to a 96-well plate, 150 μl of Microscint-40 (Packard) was added and the amount of phosphorylated-peptide was determined. Allow the Microscint to sit in the plates for 60 minutes prior to counting.
Compounds are evaluated as potential inhibitors of the MK-2 kinase by measuring their effects on MK-2 phosphorylation of the peptide substrate. Compounds may be screened initially at two concentrations prior to determination of IC50 values. Screening results are expressed as percent inhibition at the concentrations of compound tested. For IC50 value determinations, Compounds are tested at six concentrations in ten-fold serial dilutions with each concentration tested in triplicate. Results are expressed as IC50 values in micromolar. The assay is performed at a final concentration of 2% DMSO.
For the compound `ON=C1CCCn2nc3c(c21)CCc1cnccc1-3` [Example 263], the IC50 (usually the midpoint of a concentration-inhibition curve) amounted to 131 µM.

Staying with this assay, now noted: Table 1, phenoxypyrazole MK-2 inhibitors; read-out: MK-2 Avg, IC50.
Turning to `NCCCn1nc2c(c1C(=O)O)CCc1cc(O)c(-c3cccc([N+](=O)[O-])c3)cc1-2` [Example 1], the IC50 amounted to 0.823 µM.

As for `NCCn1nc2c(c1C(=O)O)CCc1cc(O)c(-c3cccc([N+](=O)[O-])c3)cc1-2` [Example 2], the IC50 amounted to 0.845 µM.

The assay is the same for the next values; noted with them: Table 2, pyrazolylpyrazole MK-2 inhibitors; read-out: MK-2 Avg. IC50.
Take `CSc1n[nH]c2c1-c1nn(CCCN)c(C(=O)O)c1CC2` [Example 1]: the IC50 was found to be 1.06 µM. The same measure, in the same setting: the value for `NCCCn1nc2c(c1C(=O)O)CCc1[nH]ncc1-2` [Example 2] was 2.17 µM.

The same assay, now with this note: Table 4, pyrimidylpyrazole MK-2 inhibitors; read-out: MK-2 Avg. IC50.
In the case of `NCCCn1nc2c(c1C(=O)O)CCc1cnc(-c3cnc4ccccc4c3)nc1-2` [Example 1], the 50% inhibitory concentration (IC50) was 0.0761 µM. Consider `NCCCn1nc2c(c1C(=O)O)CCc1cnc(-c3ccc4c(c3)OCO4)nc1-2` [Example 2], for which the IC50 is 0.295 µM.

Staying with this assay, now noted: Table 5, other cyclic pyrazole MK-2 inhibiting compounds; read-out: MK-2 Avg. IC50.
With `O=C1NCCn2nc3c(c21)CCc1cnc(/C=C/c2cccc(O)c2)cc1-3` [Example 1], the 50% inhibitory concentration (IC50) was found to be 0.0211 µM.

The same assay, now with this note: read-out: MK-2 Avg. IC50.
As for `NCCCn1nc2c(c1C(=O)O)CCc1cnc(-c3cnc4ccccc4c3)cc1-2` [Example 1], the IC50 was determined as 0.00946 µM. Same read-out and setting: the value for `NCCCn1nc2c(c1C(=O)O)CCc1cnc(-c3cccc([N+](=O)[O-])c3)cc1-2` [Example 2] was 0.018 µM; that for `O=S(=O)(Cc1ccc(Cl)cc1)NC1CCCn2nc3c(c21)CCc1cnccc1-3` (centres unmarked) [Example 232] was 78.7 µM; that for `Cc1ccc(S(=O)(=O)NC(=O)NCCCn2nc3c(c2C(=O)O)CCc2cnccc2-3)cc1` [Example 233] was 80.6 µM. Same read-out and setting: the value for `CSc1nccc2c1CCc1c-2nn(CCCN)c1C(=O)O` [Example 234] was 83.4 µM; that for `O=C(O)c1c2c(nn1CC=NO)-c1ccncc1CC2` [Example 235] was 84.3 µM; that for `CC1CCCN(c2cc3c(cn2)CCc2c-3nn3c2C(=O)NCC3)C1` (centres unmarked) [Example 236] was 84.4 µM. The same measure, in the same setting: the value for `CSc1[nH]nc2c1CCc1cnccc1-2` [Example 237] was 85.2 µM. As for `c1cc2c(cn1)CCc1c[nH]nc1-2` [Example 238], the 50% inhibitory concentration (IC50) was found to be 86.1 µM.

In the case of `NCCCn1nc2c(c1C(=O)O)CCc1c-2ccnc1-c1ccccc1` [Example 239], the 50% inhibitory concentration (IC50) was found to be 87.6 µM. Still for that read-out and setting: the value for `NC(=O)C1CCN(CC(O)Cn2nc3c(c2C(=O)O)CCc2cnccc2-3)CC1` (centres unmarked) [Example 240] was 87.6 µM; that for `Cc1ccc(C(C)CCN(CCCn2nc3c(c2C(=O)O)CCc2cnccc2-3)CCC(C)c2ccc(C)o2)o1` (centres unmarked) [Example 241] was 87.9 µM; that for `O=C1NCCCn2nc3c(c21)CCc1cnc(-c2ccc(OCc4ccccc4)cc2)cc1-3` [Example 242] was 93.4 µM. For `O=C1NCCn2nc3c(c21)CCc1cnc(Cc2ccc(Cl)cc2)cc1-3` [Example 243], the IC50 is 94.2 µM.

Regarding `FC(F)c1[nH]nc2c1CCc1cnccc1-2` [Example 244], the concentration for half-maximal inhibition (IC50) was 96.5 µM. For `O=C1NCCn2nc3c(c21)CCc1cnc(-c2cccc4ncccc24)cc1-3` [Example 246], the half-inhibitory concentration (IC50) was 98.3 µM.

Consider `NCCCn1nc(-c2nnn[nH]2)c2c1-c1ccncc1CC2` [Example 247], for which the IC50 was 100 µM. On the same count and under the same terms, the value for `CC(C)(C)c1ccc(-c2cc3c(cn2)CCc2c-3nn3c2C(=O)NCC3)cc1` [Example 248] was 101 µM. Consider `O=C(O)c1c2c(nn1CCCNc1ccncc1)-c1ccncc1CC2` [Example 249], for which the IC50 came out at 101 µM. As for `CN(c1ccccc1)c1cc2c(cn1)CCc1c-2nn2c1C(=O)NCC2` [Example 250], the 50% inhibitory concentration (IC50) worked out at 101 µM. Still for that read-out and setting: the value for `O=C1c2c3c(nn2CCN1CCCc1ccccc1)-c1ccncc1CC3` [Example 251] was 102 µM; that for `CCCn1nc2c(c1C(N)=O)CCc1cnc(-c3cnc4ccccc4c3)cc1-2` [Example 252] was 103 µM. Regarding `O=C(NCCCn1nc2c(c1C(=O)O)CCc1cnccc1-2)c1ccncc1` [Example 253], the IC50 amounted to 109 µM. The same measure, in the same setting: the value for `CC(C)(C)OC(=O)NCCCn1nc2c(c1C(=O)O)CCc1cnc(Cl)cc1-2` [Example 254] was 112 µM.

`CCCCOc1ccc(S(=O)(=O)NCCCn2nc3c(c2C(=O)O)CCc2cnccc2-3)cc1` [Example 255]: the 50% inhibitory concentration (IC50) was 113 µM. Same read-out and setting: the value for `O=C(CCc1ccco1)NCCCn1nc2c(c1C(=O)O)CCc1cnccc1-2` [Example 256] was 116 µM; that for `O=C1NCCn2nc3c(c21)CCc1cnc(-c2ccc(Oc4ccccc4)cc2)cc1-3` [Example 257] was 119 µM; that for `C=CCn1nc2c(c1C(N)=O)CCc1cnc(-c3cnc4ccccc4c3)cc1-2` [Example 258] was 119 µM. On the same count and under the same terms, the value for `O=C1NCCn2nc3c(c21)CCc1cnc(CCC2CCCCC2)cc1-3` [Example 259] was 121 µM; that for `O=C(O)c1c2c(nn1CC(O)CN1CCOCC1)-c1ccncc1CC2` (centres unmarked) [Example 260] was 128 µM; that for `O=C(NCCCn1nc2c(c1C(=O)O)CCc1cnccc1-2)c1ccccn1` [Example 261] was 129 µM.

Take `N#Cc1ccc(S(=O)(=O)NCCCn2nc3c(c2C(=O)O)CCc2cnccc2-3)cc1` [Example 262]: the IC50 stood at 130 µM. The same measure, in the same setting: the value for `CCCCCCc1cc2c(cn1)CCc1c-2nn2c1C(=O)NCC2` [Example 264] was 133 µM. Same read-out and setting: the value for `CNC(=O)c1[nH]nc2c1CCc1cnccc1-2` [Example 265] was 135 µM. The same measure, in the same setting: the value for `NC1CCN(CC(O)Cn2nc3c(c2C(=O)O)CCc2cnccc2-3)CC1` (centres unmarked) [Example 266] was 136 µM; that for `COc1cccc(S(=O)(=O)NCCCn2nc3c(c2C(=O)O)CCc2cnccc2-3)c1` [Example 267] was 141 µM; that for `CC(C)(C)OC(=O)NC1CCN(CCCn2nc3c(c2C(=O)O)CCc2cnccc2-3)CC1` [Example 269] was 149 µM. Take `CN1CCn2nc3c(c2C1=O)CCc1cnccc1-3` [Example 270]: the half-inhibitory concentration (IC50) was 156 µM.

`COC(=O)c1c2c(nn1CCO)-c1ccncc1CC2` [Example 271, hydrochloride]: the half-maximal inhibitory concentration (IC50) is 161 µM. For `O=C(O)c1c2c(nn1CC(O)CN1CCCC1)-c1ccncc1CC2` (centres unmarked) [Example 272, hydrochloride], the half-inhibitory concentration (IC50) was 162 µM.

Turning to `O=C(O)c1c2c(nn1CC(O)CNCCc1cccs1)-c1ccncc1CC2` (centres unmarked) [Example 273], the concentration for half-maximal inhibition (IC50) is 163 µM. On to `Cn1cnc(S(=O)(=O)NCCCn2nc3c(c2C(=O)O)CCc2cnccc2-3)c1` [Example 274], for which the half-maximal inhibitory concentration (IC50) was found to be 164 µM. Same read-out and setting: the value for `COC(=O)c1[nH]nc2c1CCc1cnccc1-2` [Example 275] was 171 µM; that for `CC(=O)Nc1ccc(S(=O)(=O)NCCCn2nc3c(c2C(=O)O)CCc2cnccc2-3)cc1` [Example 276] was 176 µM. On the same count and under the same terms, the value for `NCCCn1nc2c(c1CO)CCc1cnccc1-2` [Example 277] was 186 µM; that for `NCCCNC(=O)c1[nH]nc2c1CCc1cnccc1-2` [Example 278] was 189 µM. Take `O=C(NCCCn1nc2c(c1C(=O)O)CCc1cnccc1-2)c1ccco1` [Example 279]: the IC50 was found to be 190 µM. Same read-out and setting: the value for `O=C1c2c3c(nn2CC2CCCN1C2)-c1ccncc1CC3` (centres unmarked) [Example 281] was 191 µM; that for `O=C(O)c1c2c(nn1CC(O)CN1CCNCC1)-c1ccncc1CC2` (centres unmarked) [Example 283] was 198 µM.

The next assay concerns the target MK-3 (Homo sapiens, UniProt Q16644). The experiment in a line: MK-3 inhibition IC50 (similar method to MK-2, with appropriate modifications). It is filed as biochemical. To be noted: Table 1, phenoxypyrazole MK-2 inhibitors; read-out: MK-3 Avg. IC50. The method, then:
In practice, the selectivity of a cyclic pyrazole MK-2 inhibitor varies depending upon the condition under which the test is performed and on the inhibitors being tested. However, for the purposes of this specification, the selectivity of a cyclic pyrazole MK-2 inhibitor inhibitor can be measured as a ratio of the in vitro or in vivo IC50 value for inhibition of MK-3, divided by the IC50 value for inhibition of MK-2 (IC50 MK-3/IC50 MK-2). […] The MK-2 or MK-3 inhibiting activity of any of the compounds described herein can be determined by any one of several methods that are well known to those having skill in the art of enzyme activity testing. […] A similar method, with appropriate modifications, Can be used to measure MK-3 inhibitory activity. In addition, the efficacy of one of the present MK-2 inhibiting compounds in therapeutic applications can be determined by testing for inhibition of TNFα production in cell culture and in animal model assays.
As for `NCCCn1nc2c(c1C(=O)O)CCc1cc(O)c(-c3cccc([N+](=O)[O-])c3)cc1-2` [Example 1], the IC50 came to 115 µM.

With `NCCn1nc2c(c1C(=O)O)CCc1cc(O)c(-c3cccc([N+](=O)[O-])c3)cc1-2` [Example 2], the IC50 amounted to 40.9 µM. Take `COc1cc2c(cc1CCC(F)(F)F)-c1nn(CCCNC(=O)OC(C)(C)C)c(C(=O)O)c1CC2` [Example 54]: the IC50 is above 200 µM.

Staying with this assay, now noted: Table 2, pyrazolylpyrazole MK-2 inhibitors; read-out: MK-3 Avg. IC50.
Turning to `CSc1n[nH]c2c1-c1nn(CCCN)c(C(=O)O)c1CC2` [Example 1], the IC50 stood at 47 µM. The same measure, in the same setting: the value for `NCCCn1nc2c(c1C(=O)O)CCc1[nH]ncc1-2` [Example 2] was 35.3 µM.

The same assay, now with this note: Table 4, pyrimidylpyrazole MK-2 inhibitors; read-out: NK-3 Avg. IC50.
Regarding `NCCCn1nc2c(c1C(=O)O)CCc1cnc(-c3cnc4ccccc4c3)nc1-2` [Example 1], the half-maximal inhibitory concentration (IC50) turned out to be 1.93 µM.

In the case of `NCCCn1nc2c(c1C(=O)O)CCc1cnc(-c3ccc4c(c3)OCO4)nc1-2` [Example 2], the IC50 came out at 4.61 µM.

The same assay, now with this note: Table 5, other cyclic pyrazole MK-2 inhibiting compounds; read-out: MK-3 Avg. IC50.
Consider `O=C1NCCn2nc3c(c21)CCc1cnc(/C=C/c2cccc(O)c2)cc1-3` [Example 1], for which the half-maximal inhibitory concentration (IC50) is 3.62 µM.

The assay is the same for the next values; noted with them: read-out: MK-3 Avg. IC50.
Consider `NCCCn1nc2c(c1C(=O)O)CCc1cnc(-c3cnc4ccccc4c3)cc1-2` [Example 1], for which the 50% inhibitory concentration (IC50) turned out to be 0.0354 µM.

On to `NCCCn1nc2c(c1C(=O)O)CCc1cnc(-c3cccc([N+](=O)[O-])c3)cc1-2` [Example 2], for which the IC50 stood at 0.142 µM. The same measure, in the same setting: the value for `O=C(O)c1c2c(nn1CCCNS(=O)(=O)Cc1ccc(Cl)cc1)-c1cc(-c3cnc4ccccc4c3)ncc1CC2` [Example 54] was 6.46 µM.
